These results are taken from ChEMBL document CHEMBL5260845, “Flavone-based arylamides as potential anticancers: Design, synthesis and in vitro cell-based/cell-free evaluations” (2020).

Assay [1] concerns A549. Nature of the assay: Antiproliferative activity against human A549 cells assessed as cell growth inhibition at 10 uM by SRB assay relative to control. In kind it is functional. A general note: Sulforhodamine B stains cellular protein and so reports cell mass.
Assay [2] concerns NCI-H460. Kind of assay: Antiproliferative activity against human NCI-H460 cells assessed as cell growth inhibition at 10 uM by SRB assay relative to control. In kind it is functional.
The subject of assay [3] is NCI-H226. Nature of the assay: Antiproliferative activity against human NCI-H226 cells assessed as cell growth inhibition at 10 uM by SRB assay relative to control. Format: functional. As to conditions: pooled result: one value given for 4 cell lines, strains, targets or settings.
For assay [4], the system named is SK-MEL-2. Kind of assay: Antiproliferative activity against human SK-MEL-2 cells assessed as cell growth inhibition at 10 uM by SRB assay relative to control. Format: functional. As to conditions: Homo sapiens, SK-MEL-2, dose 10 µM.
In assay [5] the test system is SK-OV-3. Kind of assay: Antiproliferative activity against human SK-OV-3 cells assessed as inhibition of cell growth at 10 uM by SRB assay relative to control. Format: functional.
Assay [6] concerns SNB-75. Kind of assay: Antiproliferative activity against human SNB-75 cells assessed as cell growth inhibition at 10 uM by SRB assay relative to control. In kind it is functional.
Assay [7] deals with Vascular endothelial growth factor receptor 1 (Homo sapiens) (UniProt P17948). Nature of the assay: Inhibition of VEGFR1 (unknown origin) at 10 uM by biochemical hotspot kinase assay relative to control.
Assay [8] concerns the target Vascular endothelial growth factor receptor 3 (Homo sapiens) (UniProt P35916). Nature of the assay: Inhibition of VEGFR3 (unknown origin) at 10 uM by biochemical hotspot kinase assay relative to control.
Assay [9] deals with Fibroblast growth factor receptor 1 (Homo sapiens) (UniProt P11362). Kind of assay: Inhibition of FGFR1 (unknown origin) at 10 uM by biochemical hotspot kinase assay relative to control.
For assay [10], the target named is Ephrin type-A receptor 3 (Homo sapiens) (UniProt P29320). Kind of assay: Inhibition of EPHA3 (unknown origin) at 10 uM by biochemical hotspot kinase assay relative to control.
Sequence of Ephrin type-A receptor 3 (Homo sapiens) (P29320 whole entry): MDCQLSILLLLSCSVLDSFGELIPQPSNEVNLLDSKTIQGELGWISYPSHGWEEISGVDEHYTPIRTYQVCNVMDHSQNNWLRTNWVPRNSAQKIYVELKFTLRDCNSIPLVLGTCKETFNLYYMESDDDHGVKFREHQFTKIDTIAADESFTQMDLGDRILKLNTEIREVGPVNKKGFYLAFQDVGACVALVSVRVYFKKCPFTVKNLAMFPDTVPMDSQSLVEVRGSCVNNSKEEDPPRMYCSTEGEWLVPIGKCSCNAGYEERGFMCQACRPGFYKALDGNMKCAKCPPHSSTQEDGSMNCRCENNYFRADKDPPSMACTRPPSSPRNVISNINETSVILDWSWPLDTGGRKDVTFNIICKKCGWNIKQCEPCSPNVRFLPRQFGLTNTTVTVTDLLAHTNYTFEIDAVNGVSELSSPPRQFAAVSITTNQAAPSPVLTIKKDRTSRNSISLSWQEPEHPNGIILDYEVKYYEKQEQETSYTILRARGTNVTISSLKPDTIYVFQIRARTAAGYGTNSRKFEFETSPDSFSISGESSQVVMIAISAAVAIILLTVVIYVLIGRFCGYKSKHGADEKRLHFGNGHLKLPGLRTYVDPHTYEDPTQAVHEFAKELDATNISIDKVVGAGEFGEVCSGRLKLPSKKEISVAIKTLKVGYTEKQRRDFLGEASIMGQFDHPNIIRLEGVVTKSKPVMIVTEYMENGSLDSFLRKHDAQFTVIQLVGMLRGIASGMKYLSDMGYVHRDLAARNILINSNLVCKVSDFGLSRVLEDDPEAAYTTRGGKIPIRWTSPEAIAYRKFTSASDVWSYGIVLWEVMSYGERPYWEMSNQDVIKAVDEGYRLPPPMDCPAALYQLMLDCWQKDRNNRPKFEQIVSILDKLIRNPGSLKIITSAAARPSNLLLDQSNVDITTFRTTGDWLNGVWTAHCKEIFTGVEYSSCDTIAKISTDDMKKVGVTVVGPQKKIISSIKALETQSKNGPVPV
Assay [11] addresses Epidermal growth factor receptor (Homo sapiens) (UniProt P00533). Nature of the assay: Inhibition of EGFR (unknown origin) at 10 uM by biochemical hotspot kinase assay.
Assay [12] concerns the target Platelet-derived growth factor receptor alpha (Homo sapiens) (UniProt P16234). Kind of assay: Inhibition of PDGFRa (unknown origin) at 10 uM by biochemical hotspot kinase assay.
For assay [13], the target named is Tyrosine-protein kinase BTK (Homo sapiens) (UniProt Q06187). Nature of the assay: Inhibition of BTK (unknown origin) at 10 uM by biochemical hotspot kinase assay relative to control.
Sequence of Tyrosine-protein kinase BTK (Homo sapiens) (Q06187 whole entry): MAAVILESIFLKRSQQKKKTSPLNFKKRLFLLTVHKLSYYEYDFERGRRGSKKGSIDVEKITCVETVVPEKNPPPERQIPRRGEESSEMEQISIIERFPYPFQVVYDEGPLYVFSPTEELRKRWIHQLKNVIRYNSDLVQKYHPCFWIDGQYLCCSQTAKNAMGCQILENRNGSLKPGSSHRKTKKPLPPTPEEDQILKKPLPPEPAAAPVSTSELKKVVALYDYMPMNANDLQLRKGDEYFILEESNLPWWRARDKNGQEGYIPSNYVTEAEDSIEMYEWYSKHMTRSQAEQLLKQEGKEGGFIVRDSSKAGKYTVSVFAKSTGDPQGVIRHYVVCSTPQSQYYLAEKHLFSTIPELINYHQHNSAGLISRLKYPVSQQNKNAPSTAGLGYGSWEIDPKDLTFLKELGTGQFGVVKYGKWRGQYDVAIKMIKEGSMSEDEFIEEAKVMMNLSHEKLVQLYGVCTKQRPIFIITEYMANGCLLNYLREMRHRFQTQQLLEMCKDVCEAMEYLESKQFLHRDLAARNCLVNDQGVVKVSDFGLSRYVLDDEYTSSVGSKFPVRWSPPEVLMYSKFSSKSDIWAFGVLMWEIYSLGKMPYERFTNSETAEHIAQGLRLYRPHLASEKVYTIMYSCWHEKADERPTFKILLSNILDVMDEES
Assay [14] has as its target Tyrosine-protein kinase SYK (Homo sapiens) (UniProt P43405). Kind of assay: Inhibition of SYK (unknown origin) at 10 uM by biochemical hotspot kinase assay relative to control.
The target of assay [15] is Tyrosine-protein kinase ABL1 (Homo sapiens) (UniProt P00519). Kind of assay: Inhibition of ABL1 (unknown origin) at 10 uM by biochemical hotspot kinase assay.
For assay [16], the target named is Tyrosine-protein kinase Lyn (Homo sapiens) (UniProt P07948). Kind of assay: Inhibition of LYN (unknown origin) at 10 uM by biochemical hotspot kinase assay.
Assay [17] addresses Protein kinase C alpha type (Homo sapiens) (UniProt P17252). Nature of the assay: Inhibition of PKCa (unknown origin) at 10 uM by biochemical hotspot kinase assay.
Assay [18] concerns the target Rho-associated protein kinase 1 (Homo sapiens) (UniProt Q13464). Nature of the assay: Inhibition of ROCK1 (unknown origin) at 10 uM by biochemical hotspot kinase assay.
The target in assay [19] is Ribosomal protein S6 kinase alpha-1 (Homo sapiens) (UniProt Q15418). Nature of the assay: Inhibition of RSK1 (unknown origin) at 10 uM by biochemical hotspot kinase assay.
In assay [20] the target is Mitogen-activated protein kinase 1 (Homo sapiens) (UniProt P28482). Kind of assay: Inhibition of ERK2 (unknown origin) at 10 uM by biochemical hotspot kinase assay relative to control.
In assay [21] the target is Glycogen synthase kinase-3 beta (Homo sapiens) (UniProt P49841). Kind of assay: Inhibition of GSK3beta (unknown origin) at 10 uM by biochemical hotspot kinase assay relative to control.
Assay [22] has as its target Cyclin-dependent kinase 1/cyclin B (Homo sapiens) (UniProt P06493+P14635+Q8WWL7+O95067). Kind of assay: Inhibition of CDK1/cyclin B (unknown origin) at 10 uM by biochemical hotspot kinase assay. In kind it is protein-complex assay.
Assay [23] deals with Cyclin-dependent kinase 2/cyclin A (Homo sapiens) (UniProt P24941+P20248+P78396). Nature of the assay: Inhibition of CDK2/cyclin A (unknown origin) at 10 uM by biochemical hotspot kinase assay. In kind it is protein-complex assay.
Assay [24] deals with Mitogen-activated protein kinase 3 (Homo sapiens) (UniProt P27361). Nature of the assay: Inhibition of ERK1 (unknown origin) at 10 uM by biochemical hotspot kinase assay.
Assay [25] has as its target Mitogen-activated protein kinase 7 (Homo sapiens) (UniProt Q13164). Kind of assay: Inhibition of ERK5 (unknown origin) at 10 uM by biochemical hotspot kinase assay.
In assay [26] the target is Mitogen-activated protein kinase 14 (Homo sapiens) (UniProt Q16539). Kind of assay: Inhibition of p38a (unknown origin) at 10 uM by biochemical hotspot kinase assay.
Assay [27] addresses Mitogen-activated protein kinase kinase kinase kinase 1 (Homo sapiens) (UniProt Q92918). Nature of the assay: Inhibition of HPK1 (unknown origin) at 10 uM by biochemical hotspot kinase assay.
Assay [28] has as its target Mitogen-activated protein kinase kinase kinase 8 (Homo sapiens) (UniProt P41279). Nature of the assay: Inhibition of MAP3K8 (unknown origin) at 10 uM by biochemical hotspot kinase assay relative to control.
The target of assay [29] is Misshapen-like kinase 1 (Homo sapiens) (UniProt Q8N4C8). Kind of assay: Inhibition of MINK (unknown origin) at 10 uM by biochemical hotspot kinase assay relative to control.
The target of assay [30] is Mitogen-activated protein kinase kinase kinase kinase 4 (Homo sapiens) (UniProt O95819). Nature of the assay: Inhibition of HGK (unknown origin) at 10 uM by biochemical hotspot kinase assay relative to control.
Sequence of Mitogen-activated protein kinase kinase kinase kinase 4 (Homo sapiens) (O95819 2-1239 limits assumed): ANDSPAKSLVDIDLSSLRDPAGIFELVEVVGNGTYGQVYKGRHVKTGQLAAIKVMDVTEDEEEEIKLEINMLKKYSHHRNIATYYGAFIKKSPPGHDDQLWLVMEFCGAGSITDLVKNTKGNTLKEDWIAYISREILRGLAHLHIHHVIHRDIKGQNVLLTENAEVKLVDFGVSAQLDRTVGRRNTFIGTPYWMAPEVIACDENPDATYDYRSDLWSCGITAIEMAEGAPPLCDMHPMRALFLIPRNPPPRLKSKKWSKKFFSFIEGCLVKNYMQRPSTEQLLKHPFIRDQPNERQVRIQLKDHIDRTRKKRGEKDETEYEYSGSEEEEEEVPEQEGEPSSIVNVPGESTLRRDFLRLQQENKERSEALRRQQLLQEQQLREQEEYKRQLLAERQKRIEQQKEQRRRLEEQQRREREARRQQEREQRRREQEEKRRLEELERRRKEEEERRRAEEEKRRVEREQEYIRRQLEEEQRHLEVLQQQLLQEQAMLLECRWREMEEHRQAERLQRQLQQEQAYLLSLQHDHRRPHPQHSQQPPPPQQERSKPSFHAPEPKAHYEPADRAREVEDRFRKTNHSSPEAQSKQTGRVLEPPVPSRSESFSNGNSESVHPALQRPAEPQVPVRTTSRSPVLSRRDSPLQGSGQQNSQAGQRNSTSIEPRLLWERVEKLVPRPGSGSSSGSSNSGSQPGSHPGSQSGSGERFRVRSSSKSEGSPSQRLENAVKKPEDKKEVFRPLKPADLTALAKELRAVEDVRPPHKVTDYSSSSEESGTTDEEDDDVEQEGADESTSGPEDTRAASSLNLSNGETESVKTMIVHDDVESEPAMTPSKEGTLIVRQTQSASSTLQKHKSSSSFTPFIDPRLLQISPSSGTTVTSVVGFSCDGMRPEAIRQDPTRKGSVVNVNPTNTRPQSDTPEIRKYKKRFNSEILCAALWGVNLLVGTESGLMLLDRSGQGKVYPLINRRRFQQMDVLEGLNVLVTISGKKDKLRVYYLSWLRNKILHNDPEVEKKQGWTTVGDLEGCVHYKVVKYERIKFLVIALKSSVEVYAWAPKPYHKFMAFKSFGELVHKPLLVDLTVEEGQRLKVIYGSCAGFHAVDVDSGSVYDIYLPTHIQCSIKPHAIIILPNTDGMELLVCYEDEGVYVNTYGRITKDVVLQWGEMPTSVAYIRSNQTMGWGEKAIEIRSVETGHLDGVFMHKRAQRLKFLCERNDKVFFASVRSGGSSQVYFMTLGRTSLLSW
Assay [31] addresses TRAF2 and NCK-interacting protein kinase (Homo sapiens) (UniProt Q9UKE5). Kind of assay: Inhibition of TNIK (unknown origin) at 10 uM by biochemical hotspot kinase assay relative to control.
Assay [32] has as its target Serine/threonine-protein kinase Chk2 (Homo sapiens) (UniProt O96017). Kind of assay: Inhibition of CHK2 (unknown origin) at 10 uM by biochemical hotspot kinase assay relative to control.
Assay [33] concerns the target Serine/threonine-protein kinase PLK2 (Homo sapiens) (UniProt Q9NYY3). Kind of assay: Inhibition of PLK2 (unknown origin) at 10 uM by biochemical hotspot kinase assay relative to control.
Assay [34] has as its target Wee1-like protein kinase (Homo sapiens) (UniProt P30291). Nature of the assay: Inhibition of WEE1 (unknown origin) at 10 uM by biochemical hotspot kinase assay.
Assay [35] has as its system HT-29. Nature of the assay: Induction of cell cycle arrest in human HT-29 cells assessed as accumulation of cells at G1 phase at 2.5 uM incubated for 24 hrs by PI staining based analysis (reference value: 40.3%). Format: functional.
Assay [36] deals with HT-29. Kind of assay: Induction of cell cycle arrest in human HT-29 cells assessed as accumulation of cells at G1 phase at 5 uM incubated for 24 hrs by PI staining based analysis (reference value: 40.3%). In kind it is functional.

Each structure is given as a SMILES string. Active and inactive are the calls of the source. No cut-off for these calls is given here.

Sequence of Mitogen-activated protein kinase 7 (Homo sapiens) (Q13164 2-816 limits assumed): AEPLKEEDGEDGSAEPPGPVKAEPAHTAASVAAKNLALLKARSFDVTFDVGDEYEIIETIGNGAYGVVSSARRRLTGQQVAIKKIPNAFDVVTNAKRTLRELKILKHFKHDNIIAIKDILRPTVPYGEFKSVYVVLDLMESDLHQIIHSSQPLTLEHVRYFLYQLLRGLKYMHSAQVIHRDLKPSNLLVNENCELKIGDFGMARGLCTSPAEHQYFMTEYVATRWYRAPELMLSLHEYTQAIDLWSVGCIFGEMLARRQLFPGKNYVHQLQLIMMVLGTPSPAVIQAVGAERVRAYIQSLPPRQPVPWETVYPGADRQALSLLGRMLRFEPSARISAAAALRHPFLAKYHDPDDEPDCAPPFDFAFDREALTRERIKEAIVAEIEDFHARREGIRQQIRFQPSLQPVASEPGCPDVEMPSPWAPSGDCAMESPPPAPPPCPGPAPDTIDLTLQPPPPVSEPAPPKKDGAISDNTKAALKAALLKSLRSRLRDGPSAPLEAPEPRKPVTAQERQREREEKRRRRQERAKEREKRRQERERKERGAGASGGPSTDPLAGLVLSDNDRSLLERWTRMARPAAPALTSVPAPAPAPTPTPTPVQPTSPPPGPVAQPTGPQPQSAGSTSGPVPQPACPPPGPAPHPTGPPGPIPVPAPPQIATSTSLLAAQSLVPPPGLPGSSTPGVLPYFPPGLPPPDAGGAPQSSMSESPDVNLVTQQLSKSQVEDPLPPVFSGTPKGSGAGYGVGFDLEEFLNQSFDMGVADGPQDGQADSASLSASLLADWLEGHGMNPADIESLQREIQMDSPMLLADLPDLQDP
Sequence of Serine/threonine-protein kinase Chk2 (Homo sapiens) (O96017 whole entry): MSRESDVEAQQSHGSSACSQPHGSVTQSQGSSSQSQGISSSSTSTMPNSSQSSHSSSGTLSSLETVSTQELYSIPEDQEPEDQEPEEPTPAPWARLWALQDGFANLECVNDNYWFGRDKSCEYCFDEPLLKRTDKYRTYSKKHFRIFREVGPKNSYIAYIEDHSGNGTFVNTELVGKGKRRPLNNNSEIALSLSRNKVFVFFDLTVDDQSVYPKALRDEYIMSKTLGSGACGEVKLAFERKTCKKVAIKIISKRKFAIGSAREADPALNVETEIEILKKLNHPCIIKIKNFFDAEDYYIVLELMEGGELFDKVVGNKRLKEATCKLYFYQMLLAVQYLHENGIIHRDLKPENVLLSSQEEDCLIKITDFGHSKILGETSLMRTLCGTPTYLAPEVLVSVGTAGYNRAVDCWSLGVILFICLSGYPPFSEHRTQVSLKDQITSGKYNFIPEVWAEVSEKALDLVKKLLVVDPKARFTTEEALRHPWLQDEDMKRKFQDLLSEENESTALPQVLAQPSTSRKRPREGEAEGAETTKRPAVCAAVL

For `COc1cc2oc(-c3cccc(C(=O)Nc4ccc(Cl)cc4)c3)cc(=O)c2c(OC)c1OC`, the inhibition at 10 µM came to 74.8% in assay [1]; 74.8% in assay [2]; 51.8% in assay [3]; 68.6% in [4]; 56.9% in assay [5].
With `COc1cc2oc(-c3cccc(C(=O)Nc4ccc(C)cc4)c3)cc(=O)c2c(OC)c1OC`, the inhibition at 10 µM in assay [6] was > 50%. For the same molecule, the inhibition in assay [7] stood at 14.9%; in [8], 8.65%; in assay [9] it was 16.5%; in assay [10], 7.95%; in assay [13], 9.9%; in assay [14], 1.17%. Also, the inhibition in assay [20] stood at 17.2%; in assay [21], 1.03%; in assay [28] it was 3.13%; in assay [29] it was 41%; in assay [30], 48.8%; in assay [31], 46.1%. The values for the inhibition in [32] and in assay [33] were 6.31% and 10.5%, respectively. Further, the inhibition result in [11], in assay [12], in [15], in assay [16], in [17] and in [18] was “inactive” each time. Besides, the inhibition entry in [19], in assay [22], in assay [23], in assay [24], in assay [25] and in assay [26] was “inactive” in each case. Besides, the inhibition entry in [27] and in [34] was “inactive” each time. For the same molecule, the figures for the Activity in [35] and in assay [36] were 55.4% and 59.1%, respectively.

By inhibition is commonly meant the drop in the measured response relative to a control, in per cent.
